The subject of the assay is skin of adult mice. Put plainly: TBA test of peroxide level in skin of adult shaved mice. In kind it is in vivo, mouse. Particulars: 0.1% in Oil of Olay. From the text:
Samples of creams and appropriate controls were applied to mice or rat skin for a fixed period. The application was done once a day. Experiments were terminated by killing the animal, peeling the skin and freezing it in liquid nitrogen. Samples of the frozen skin were homogenized in 0.2.M phosphate buffer, pH 6.5. After centrifugation, the supernatant was collected and analyzed for the peroxide value using the TBA (thiobarbituric acid) test as described by Sinnhuber et. al, Food Res. 23: 620 (1958).
In these experiments adult mice (2 months old) were treated as described in Example 2. The grown mice were shaved before applying the creams to the skin. In this experiment the antioxidant was dissolved in Oil of Olay. Mice were sacrificed after 21 days.

As to `COc1ccc(O)c(C(C)(C)C)c1` [BHA, butylated hydroxy anisole], the “reduction of the level of peroxides in the skin” value (from here on “reduction”) is on record as “no reduction of the level of peroxides was observed”.

Turning to `Cc1cc(C(C)(C)C)c(O)c(C(C)(C)C)c1` [BHT, butylated hydroxy toluene], the “reduction” value is listed as “no reduction of the level of peroxides was observed”.

`Cc1c(C)c2c(c(C)c1O)CCC(C)(CCCC(C)CCCC(C)CCCC(C)C)O2` (stereo not drawn) [alpha tocopherol, alpha-tocopherol]: the “reduction” value is “no reduction of the level of peroxides was observed”.

For the origin of these results see patent publication US4923697A, “Antioxidant compositions and methods” (Bar-Ilan University, priority 1986, dated 1990).
